In US20020151562A1, “Compositions and methods for treating allergic fungal sinusitis” (priority 2001, published 2002):
“Also recorded” adds a separate entry of the source.

Test system: patients diagnosed to have allergic fungal sinusitis resistant to treatment
Assay: Nasal Spray Study: patient questionnaire after two months of intranasal treatment
Details: for effectiveness in treating allergic fungal sinusitis, allergic rhinitis and asthma (symptom relief): extremely low dose, patients resistant to standard treatments including corticosteroids; for side effects: low dose, patients tested
Text: Fifty-four patients were selected on the basis of their failure to respond to intranasal corticosteroids for the treatment of acute and chronic sinusitis and allergic rhinitis and positive skin tests to fungi. […] The age range was 6 years to 71 years.
Each patient was instructed to use two sprays in each nostril twice daily, AM and PM for a total of four sprays per nostril per day. Treatment lasted for two months.
Therefore, the status of the patients' symptoms were documented over a period of two months.
The following statements were posed to the patients after treatment for two months with regard to their symptoms before and after the course of treatment.

[1] = intranasal, listed as compound of formula I

CC(C)(O)c1ccccc1CC[C@@H](SCC1(CC(=O)[O-])CC1)c1cccc(/C=C/c2ccc3ccc(Cl)cc3n2)c1.[Na+] [sodium salt of montelukast, montelukast]
Total Number of Patients Post Treatment Reporting Improvement (sinus pain, post nasal drip and nasal congestion worse in cold weather) (52 tested, 21 reporting prior to treatment, intranasal, two months): 14 patients
Total Number of Patients Post Treatment that Reported Improvement (worry that sinus pain, post nasal drip and nasal congestion affect health and make it difficult to sleep) (52 tested, 31 reporting prior to treatment, intranasal, two months): 30 patients
Total Number of Patients Reporting Improvement (sinus and nasal congestion worse around tobacco smoke, fumes or strong odors) (52 tested, 42 reporting prior to treatment, intranasal, two months): 24 patients
Total Number of Patients Post Treatment Reporting Improvement (sleeping trouble due to coughing and choking attacks, post nasal drip and sinus pain) (52 treated, 29 reporting prior to treatment, intranasal, two months): 28 patients
Total Number of Patients Post Treatment that Reported Improvement (allergy medicine does not control nasal congestion, sinusitis, post nasal drip and ear congestion) (52 treated, 42 reporting prior to treatment, intranasal, two months): 42 patients
Total Number of Patients Reporting Improvement (respiratory infection goes into sinuses, ears and nose) (52 treated, 44 reporting prior to treatment, intranasal, two months): 27 patients
Total Number of Patients Post Treatment Reporting Improvement (dust, pollen and pets cause nasal congestion, sinus pain, ear pain and dizziness) (52 treated, 45 reporting prior to treatment, intranasal, two months): 37 patients
patients with positive results and alleviation of major symptoms (at the end of two months, of the fifty-two patients, intranasal saline spray): forty-two
effectiveness in treating allergic fungal sinusitis, allergic rhinitis and asthma (symptom relief) (intranasal): effective not only in relieving nasal congestions, sinus pain, post nasal drip, throat pain and serous otitis media, but it also helped their asthma; also recorded: effective
effectiveness in treating allergic fungal sinusitis, allergic rhinitis and asthma (symptom relief) [1]: improvement in these non-responders was noticed
side effects (intranasal): no significant side effects
side effects [1]: without harmful effects
time to some recovery after application (nasal spray, low dosages): within one day
Total Number of Patients Reporting Improvement of Breathing Post-Treatment (statement: trouble breathing or cough when walking or doing simple chores, 52 treated, 34 with trouble breathing before treatment, intranasal, two months): 24 patients
